Series [1] concerns the target T1, Vitamin K Epoxide Reductase Complex 1 (VKORC1) (Rattus norvegicus, UniProt Q6TEK4).
T1 construct: catalysed by microsomes of the livers of rats sensitive to anti-vitamin K (AVK) compounds; from tissue; host or cells: rat liver microsomes
T1 sequence (Q6TEK4 1-161): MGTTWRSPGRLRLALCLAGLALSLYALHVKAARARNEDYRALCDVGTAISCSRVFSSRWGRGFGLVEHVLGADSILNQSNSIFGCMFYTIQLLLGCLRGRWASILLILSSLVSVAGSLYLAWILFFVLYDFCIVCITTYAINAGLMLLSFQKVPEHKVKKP
In words: Inhibition of vitamin K epoxide reductase (VKOR) activity in vitro, rat liver microsomes. It counts as biochemical. Conditions: microsomes of livers of rats sensitive to AVK; preparations 96% pure; read-out: inhibition constants (Ki) of VKOR activity. The protocol: Inhibition of Vitamin K Epoxide Reductase Complex 1 (VKORC1) In Vitro by the Homostereoisomer and by the Heterostereoisomer of Bromadiolone
The inhibitory power of two preparations concentrated respectively in the homostereoisomer (Homo-SI) and heterostereoisomer (Hetero-SI) of bromadiolone was evaluated utilising measurement of the activity of vitamin K epoxide reductase (VKOR) catalysed by microsomes of the livers of rats sensitive to anti-vitamin K (AVK) compounds. The configurational stereoisomers of bromadiolone are partially purified by HPLC chromatography over a gradient of composition (A/B) as described in Table 1 above. The preparation concentrated in Homo-SI is made up of 96% Homo-SI and 4% Hetero-SI. The preparation concentrated in Hetero-SI is made up of 96% Hetero-SI and 4% Homo-SI. […] The inhibitory power on the toxicological target of each of the two isomers is therefore similar.

Series [2] can be described thus: Hepatic persistence in the rat after single tube-feeding of Homo-SI or Hetero-SI. It counts as in vivo, Sprague Dawley rats. The protocol:
Hepatic Persistence of the Homostereoisomer (Homo-SI) and the Heterostereoisomer (Hetero-SI) of Bromadiolone in the Rat
On D0 laboratory rats (Sprague Dawley rats, Charles River, Saint germain sur l'Arbresle, France) having a body weight of the order of 200 g are tube-fed with a solution of Homo-SI in a mixture of oil/DMSO or with a solution of Hetero-SI in an identical mixture of oil/DMSO in an amount of 3.0 mg of bromadiolone per kilogram of rat. The rats are kept alive by daily subcutaneous injection of a solution of vitamin K in an amount of 0.1 U per rat. On D+1, D+3, D+7, D+14 and D+21 4 rats are anaesthetised with isoflurane and then sacrificed, and the livers are removed and frozen until analysed. The course with respect to time of the mean hepatic contents of the configurational stereoisomers “Homo-SI” (▪) and “Hetero-SI” (◯) are analysed by HPLC, given in Table 2 below and shown in FIG. 4 (the symbol (▪) represents Homo-SI and the symbol (◯) represents Hetero-SI).

Series [3] can be described thus: Hepatic persistence of Homo-SI/Hetero-SI mixtures in the male rat. It counts as in vivo, male Sprague Dawley rats. The protocol: Hepatic Persistence of the Homo-SI and Hetero-SI Configurational Stereoisomers of Bromadiolone in the Male Rat
The following compositions concentrated in the Homo-SI or Hetero-SI configurational stereoisomers are prepared by one of the chromatography methods described above, in which the molar ratios are as follows: • Homo-SI/Hetero-SI: 80/20; • Homo-SI/Hetero-SI: 4/96.
On D0 16 male laboratory rats (Sprague Dawley rats, Charles River, Saint germain sur l'Arbresle, France) having a body weight of the order of 200 g are tube-fed with a dose of the 80/20 mixture or the 4/96 mixture above in an amount of 3.8 mg of bromadiolone per kilogram of rat. The rats are kept alive by daily subcutaneous injection of a solution of vitamin K. On D+1, D+3, D+5 and D+10, 4 rats are anaesthetised with isoflurane and then sacrificed, and the livers are removed and frozen until analysed.

The nature of series [4]: Hepatic persistence of Homo-SI/Hetero-SI mixtures in the female rat. It counts as in vivo, female rats. On the procedure: Hepatic Persistence of the Homo-SI and Hetero-SI Configurational Stereoisomers of Bromadiolone in the Female Rat
The following compositions concentrated in the Homo-SI or Hetero-SI configurational stereoisomers are prepared by one of the chromatography methods described above, in which the molar ratios are as follows: • Homo-SI/Hetero-SI: 80/20; • Homo-SI/Hetero-SI: 20/80.
The procedure with the female rats is the same as that with the male rats as described above. The mean hepatic contents of the Homo-SI and Hetero-SI isomers of the female rats are analysed by HPLC and are given in Table 4 below.

The next series deals with Sprague Dawley rats. In words: Multi-feeding administration of composition concentrated in Homo-SI, coagulation time (Quick time). Conditions: daily dose of 0.25 mg during 3 consecutive days, male or female rat. It counts as in vivo. On the procedure:
Administration of a Composition Concentrated in Homo-SI by Multiple Ingestions (“Multi-Feeding”)
A composition of bromadiolone comprising 96% Homo-SI and 4% Hetero-SI is administered daily by tube-feeding during three days (D0, D+1 and D+2) to groups of 3 male or female laboratory rats (Sprague Dawley rats of 200 g) in an amount of: • 0.05 mg of bromadiolone per kilogram of rat, or • 0.1 mg of bromadiolone per kilogram of rat, or • 0.25 mg of bromadiolone per kilogram of rat, or • 0.5 mg of bromadiolone per kilogram of rat, or • 0.75 mg of bromadiolone per kilogram of rat.
On these rats blood samples are taken and on D+3 the coagulation time (Quick time, expressed in seconds) of the plasma is measured by means of the “Neoplastine CI Determination of Prothrombin Time” kit (Diagnostica Stago, Asnière, France) by measurement on a Thrombotimer option 2 plus apparatus (Behnk Electronik, Norderstedt, Germany).
The results obtained are given in FIG. 5, on which the hatched histograms represent the coagulation time of the female rats and the solid histograms represent the coagulation times of the male rats. By way of indication, the normal value for the coagulation time of untreated rats is of the order of 10 to 20 seconds.

The mark [5] stands for this setting: D + 1, 3.0 mg/kg tube-fed on D0, 3 mg/kg.
Setting [6] is: D + 3, 3.0 mg/kg tube-fed on D0, 3 mg/kg.
[7] abbreviates: D + 7, 3.0 mg/kg tube-fed on D0, 3 mg/kg.
Where [8] appears, read: D + 14, 3.0 mg/kg tube-fed on D0, 3 mg/kg.

Read-outs that look alike come from different tables or passages of the source.

As for `O=c1oc2ccccc2c(O)c1C(CC(O)c1ccc(-c2ccc(Br)cc2)cc1)c1ccccc1` (stereo not shown) [Homo-SI, 3-[3-(4′-bromo-[1,1′-biphenyl]-4-yl)-3-hydroxy-1-phenylpropyl]-4-hydroxy-2H-1-benzopyran-2-one], the Ki (as a rule, a measure of affinity in units of concentration, obtained from inhibition or displacement) in series [1] is ~30 nM. For the same compound, the Hepatic content in series [2] (setting [5]) came out at 8.27 ± 2.72 µg/g; in series [2] (setting [6]), 2.34 ± 0.43 µg/g; in series [2] (setting [7]), 1.57 ± 0.21 µg/g; in series [2] (setting [8]), 0.99 ± 0.06 µg/g. Besides, in series [2] (Sprague Dawley, rat, liver, oral, 3 mg/kg, D + 21, 3.0 mg/kg tube-fed on D0, read-out: Hepatic content), the concentration at 21 day is 920 ± 80 ng/g. For the same compound, the “hepatic persistence compared with Hetero-SI” value in series [2] (rat, equal initial dose) is recorded as “significantly lower”; in series [4], “significantly lower”. In addition, the “hepatic persistence (comparison with Hetero-SI or 4/96 mixture)” value in series [3] is “significantly lower”.

Regarding `O=c1oc2ccccc2c(O)c1C(CC(O)c1ccc(-c2ccc(Br)cc2)cc1)c1ccccc1` (stereo not shown) [Mixture 20/80, reference compound], the “Hepatic content of total bromadiolone” value in series [4] (D + 9) came out at 7.18 µg/g. Also, in series [4] (female, Sprague Dawley, rat, liver, oral, 3.8 mg/kg, D + 1, read-out: Hepatic content of total bromadiolone), the concentration at 1 day worked out at 32500 ng/g. Further, the concentration at 3 day in series [4] (female, Sprague Dawley, rat, liver, oral, 3.8 mg/kg, D + 3, read-out: Hepatic content of total bromadiolone) was found to be 24200 ng/g. In addition, in series [4] (female, Sprague Dawley, rat, liver, oral, 3.8 mg/kg, D + 5, read-out: Hepatic content of total bromadiolone), the concentration at 5 day amounted to 16400 ng/g.

Turning to `O=c1oc2ccccc2c(O)c1C(CC(O)c1ccc(-c2ccc(Br)cc2)cc1)c1ccccc1` (stereo not shown) [96/4], the “effect of repeated ingestion (anticoagulant effect, haemorrhage, death)” value in the series with Sprague Dawley rats is “sufficient to obtain an anticoagulant effect, a haemorrhage in the rat (male or female) and its death”.

With `O=c1oc2ccccc2c(O)c1C(CC(O)c1ccc(-c2ccc(Br)cc2)cc1)c1ccccc1` (stereo not shown) [Mixture 80/20], the “Hepatic content of total bromadiolone” value in series [3] (3.8 mg/kg, D + 1, 3.8 mg/kg) was found to be 7.85 ± 0.51 µg/g; in series [3] (3.8 mg/kg, D + 3, 3.8 mg/kg), 3.49 ± 0.29 µg/g; in series [3] (3.8 mg/kg, D + 5, 3.8 mg/kg), 2.15 ± 0.90 µg/g; in series [3] (3.8 mg/kg, D + 10, 3.8 mg/kg), 1.33 ± 0.14 µg/g; in series [4] (D + 1) it was 25.39 µg/g; in series [4] (D + 3), 12.6 µg/g. Besides, in series [4] (D + 9), the “Hepatic content of total bromadiolone” value turned out to be 2.47 µg/g. In addition, in series [3] (listed as 80/20 mixture), the “hepatic persistence (comparison with Hetero-SI or 4/96 mixture)” value is “less persistent”. Besides, the concentration at 1 day in series [3] (male, Sprague Dawley, rat, liver, oral, 3.8 mg/kg, D + 1, read-out: Hepatic content of total bromadiolone) was determined as 7850 ng/g.

Consider `O=c1oc2ccccc2c(O)c1C(CC(O)c1ccc(-c2ccc(Br)cc2)cc1)c1ccccc1` (stereo not shown) [Mixture 4/96, reference compound], for which the “Hepatic content of total bromadiolone” value in series [3] (3.8 mg/kg, D + 1, 3.8 mg/kg) was 14.96 ± 2.0 µg/g; in series [3] (3.8 mg/kg, D + 1, listed as 4/96 mixture, 3.8 mg/kg), 14.96 µg/g; in series [3] (3.8 mg/kg, D + 3, 3.8 mg/kg), 10.08 ± 3.3 µg/g; in series [3] (3.8 mg/kg, D + 5, 3.8 mg/kg) it was 9.99 ± 1.0 µg/g. Moreover, in series [3] (male, Sprague Dawley, rat, liver, oral, 3.8 mg/kg, D + 10, read-out: Hepatic content of total bromadiolone), the concentration at 10 day came to 2390 ng/g.

On to `O=c1oc2ccccc2c(O)c1C(CC(O)c1ccc(-c2ccc(Br)cc2)cc1)c1ccccc1` (stereo not shown) [Hetero-SI, reference compound], for which the Ki in series [1] was ~50 nM. For the same compound, the Hepatic content was 18.62 ± 2.22 µg/g in series [2] (setting [5]); 14.70 ± 1.06 µg/g in series [2] (setting [6]); 5.20 ± 0.75 µg/g in series [2] (setting [7]); 2.67 ± 1.07 µg/g in series [2] (setting [8]); 0.99 ± 0.07 µg/g in series [2] (D + 21, 3.0 mg/kg tube-fed on D0, 3 mg/kg).

The values above are taken from patent publication US9992997B2, “Composition comprising bromadiolone, rodenticide bait, and method for controlling target rodent pests” (priority 2014, dated 2018).
